A value given as a limit tells only on which side of the number the result lay.

Usually Ki stands for the equilibrium dissociation constant of an inhibitor or competing ligand from its target. Low readings indicate a stronger hold on the target, high ones a looser hold on the target.

Assay [1] deals with D(2) dopamine receptor (Homo sapiens, UniProt P14416). Briefly: Displacement of [3H]-N-methylspiperone from dopamine D2 receptor expressed in human MES-23.5 cells. For orientation: Loss of bound radioactivity is the signal in a displacement assay; it reports binding, not function.
The target of assay [2] is 5-hydroxytryptamine receptor 2A (Homo sapiens, UniProt P28223). The assay can be described thus: Binding affinity at 5-HT2A receptor by radioligand displacement assay.
The target of assay [3] is T1, 5-hydroxytryptamine receptor 2C (Homo sapiens, UniProt P28335).
T1 sequence (P28335 whole entry): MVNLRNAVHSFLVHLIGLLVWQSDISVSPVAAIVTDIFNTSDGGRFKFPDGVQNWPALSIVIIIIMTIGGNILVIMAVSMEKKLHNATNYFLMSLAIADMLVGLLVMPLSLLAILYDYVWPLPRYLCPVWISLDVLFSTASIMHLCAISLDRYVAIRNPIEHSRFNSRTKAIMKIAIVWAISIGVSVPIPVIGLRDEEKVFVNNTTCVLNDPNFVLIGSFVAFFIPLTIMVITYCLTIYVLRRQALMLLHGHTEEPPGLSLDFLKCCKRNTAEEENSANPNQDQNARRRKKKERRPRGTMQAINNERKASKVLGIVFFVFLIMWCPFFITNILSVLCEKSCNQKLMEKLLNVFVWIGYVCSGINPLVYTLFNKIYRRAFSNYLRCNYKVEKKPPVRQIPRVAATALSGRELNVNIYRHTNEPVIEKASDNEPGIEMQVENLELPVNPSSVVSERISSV
The assay can be described thus: Binding affinity at 5-HT2C receptor by radioligand displacement assay.

Assay [4] addresses Histamine H1 receptor (Homo sapiens, UniProt P35367). The assay can be described thus: Displacement of [3H]-Pyrilamine from human histamine H1 receptor by liquid scintillation counter.

5-hydroxytryptamine receptor 2A, sequence (P28223 whole entry): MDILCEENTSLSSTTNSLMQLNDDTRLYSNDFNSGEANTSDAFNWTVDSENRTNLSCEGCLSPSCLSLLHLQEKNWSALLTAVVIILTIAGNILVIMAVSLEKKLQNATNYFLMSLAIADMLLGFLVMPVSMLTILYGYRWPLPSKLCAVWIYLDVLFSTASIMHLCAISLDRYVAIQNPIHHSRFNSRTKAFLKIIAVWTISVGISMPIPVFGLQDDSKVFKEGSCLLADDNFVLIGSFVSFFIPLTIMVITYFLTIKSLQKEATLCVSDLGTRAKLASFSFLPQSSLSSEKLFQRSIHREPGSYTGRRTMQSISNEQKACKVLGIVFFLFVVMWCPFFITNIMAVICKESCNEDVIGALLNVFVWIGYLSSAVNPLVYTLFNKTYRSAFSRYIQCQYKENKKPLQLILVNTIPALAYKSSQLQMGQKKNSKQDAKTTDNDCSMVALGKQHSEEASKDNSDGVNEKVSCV
Histamine H1 receptor, sequence (P35367 whole entry): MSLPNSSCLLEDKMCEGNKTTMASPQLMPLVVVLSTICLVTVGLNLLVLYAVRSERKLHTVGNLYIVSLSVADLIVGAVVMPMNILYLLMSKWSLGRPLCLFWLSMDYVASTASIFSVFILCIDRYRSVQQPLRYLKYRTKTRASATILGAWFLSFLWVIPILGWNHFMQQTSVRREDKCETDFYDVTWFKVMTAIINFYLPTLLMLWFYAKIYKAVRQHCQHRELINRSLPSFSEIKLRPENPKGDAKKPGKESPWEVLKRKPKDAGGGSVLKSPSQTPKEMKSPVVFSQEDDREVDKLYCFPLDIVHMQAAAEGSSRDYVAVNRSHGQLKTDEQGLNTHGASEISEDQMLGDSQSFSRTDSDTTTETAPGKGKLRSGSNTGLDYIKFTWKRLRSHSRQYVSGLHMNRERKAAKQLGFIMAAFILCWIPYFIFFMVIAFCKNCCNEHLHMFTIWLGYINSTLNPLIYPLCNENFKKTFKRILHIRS
D(2) dopamine receptor, sequence (P14416 whole entry): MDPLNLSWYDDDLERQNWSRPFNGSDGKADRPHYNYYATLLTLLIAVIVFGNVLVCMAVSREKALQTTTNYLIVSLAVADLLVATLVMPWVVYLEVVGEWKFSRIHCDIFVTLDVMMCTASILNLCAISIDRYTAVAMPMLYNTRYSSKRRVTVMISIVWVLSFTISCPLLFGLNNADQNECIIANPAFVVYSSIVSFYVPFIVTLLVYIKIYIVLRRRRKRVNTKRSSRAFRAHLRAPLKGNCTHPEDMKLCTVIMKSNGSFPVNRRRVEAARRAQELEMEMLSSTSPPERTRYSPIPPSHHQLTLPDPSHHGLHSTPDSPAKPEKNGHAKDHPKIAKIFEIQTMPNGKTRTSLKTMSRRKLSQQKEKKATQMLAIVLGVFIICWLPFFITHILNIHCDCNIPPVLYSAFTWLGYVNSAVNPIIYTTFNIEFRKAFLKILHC

Regarding `O=C(CCCCN1[C@@H]2CC[C@H]1CC(O)(c1ccc(Cl)cc1)C2)c1nc2ccccc2s1` (some centres undefined), in assay [1], the affinity, expressed as Ki, was 180 nM.
Take `OC1(c2ccc(Cl)cc2)C[C@H]2CC[C@@H](C1)N2CCCCc1nc2ccccc2s1` (some centres undefined): the results for the inhibitory constant (Ki) in assay [2], in assay [3] and in assay [4] were greater than 10000 nM, 4620 nM and 187 nM, respectively.

The values are drawn from BindingDB's records for doi:10.1016/j.bmc.2012.01.022 (Florida A&M University, 2012).
